Test systems include M14 melanoma; UO-31 renal; HCT-116 colon; MALME-3M melanoma; SR leukemia; MDA-MB-435; SF-539 CNS; SNB-75 CNS; UACC-257 melanoma; SW-620 colon.
Assay in all cases: DTP human tumour cell line panel, 48 h

Where “and” joins values, the source holds several entries; their conditions need not be identical. Identical values can stand only once.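 1) Cells in 96-well plates. 2) Compound, 48 h, 5 concentrations. 3) Linear interpolation between surrounding doses. 4) Unreached endpoint = highest concentration. GI50 is the concentration that inhibits growth by half. At the TGI there is no net growth.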

These results are taken from PubChem BioAssay (NCI).

In the case of `O=C(C=P(c1ccccc1)(c1ccccc1)c1ccccc1)CCl`, the GI50 with M14 melanoma is 1.36 µM; in the assay with UO-31 renal, 1.04 µM; with HCT-116 colon, 0.416 µM; in the assay with MALME-3M melanoma, 1.32 µM; in the assay with SR leukemia, 0.38 µM; with MDA-MB-435, 0.894 µM. The GI50 with SF-539 CNS was 1.28 µM; in the assay on SNB-75 CNS, 1.19 µM; in the assay on UACC-257 melanoma it was 1.14 µM; in the assay on SW-620 colon, 0.579 µM. The TGI was determined as 3.89 µM in the assay with M14 melanoma; 2.38 µM with UO-31 renal; 1.6 µM in the assay on HCT-116 colon; 3.08 µM in the assay with MALME-3M melanoma; 10.5 µM in the assay on SR leukemia; 2.34 µM with MDA-MB-435. The TGI with SF-539 CNS was found to be 2.98 µM; in the assay on SNB-75 CNS it was 7.57 µM; with UACC-257 melanoma, 2.59 µM; in the assay on SW-620 colon, 2.12 µM.
Turning to `CN(C)CCCSc1ccccc1NC1=C(Cl)C(=O)C(Nc2ccccc2SCCCN(C)C)=C(Cl)C1=O`, the GI50 in the assay with M14 melanoma is 1.74 µM; with UO-31 renal, 1.47 µM; in the assay with HCT-116 colon, 1.52 µM; in the assay on MALME-3M melanoma it was 1.85 µM; with SR leukemia, 2.15 µM; in the assay on MDA-MB-435, 2.06 µM. The GI50 was 1.68 µM in the assay with SF-539 CNS, 11.1 µM in the assay with SNB-75 CNS, 1.96 µM in the assay on UACC-257 melanoma and 2.17 µM in the assay with SW-620 colon. Also, the TGI with M14 melanoma came to 3.72 µM; in the assay on UO-31 renal, 2.79 µM; in the assay on HCT-116 colon, 2.93 µM; in the assay with MALME-3M melanoma, 3.6 µM; with SR leukemia, 6.05 µM; in the assay with MDA-MB-435, 4.52 µM. The TGI worked out at 3.1 µM in the assay on SF-539 CNS, 23.2 µM in the assay on SNB-75 CNS, 3.45 µM with UACC-257 melanoma and 4.38 µM in the assay on SW-620 colon.
Take `Cc1cnc2oc3ccc(O)cc3c2c1-c1ccccc1`: the GI50 is greater than 100 µM in the assay on M14 melanoma; 51.6 µM in the assay with UO-31 renal; greater than 100 µM in the assay with HCT-116 colon; 32.5 µM in the assay with MALME-3M melanoma; greater than 100 µM in the assay with SR leukemia; greater than 100 µM with MDA-MB-435. The GI50 with SF-539 CNS was 16.1 µM; with SNB-75 CNS, 21.2 µM; with UACC-257 melanoma, greater than 100 µM; in the assay with SW-620 colon it was greater than 100 µM. The total growth inhibition concentration (TGI) in the assay on M14 melanoma, in the assay with UO-31 renal, in the assay with HCT-116 colon, in the assay on MALME-3M melanoma, with SR leukemia and in the assay with MDA-MB-435 was greater than 100 µM each time. For the same molecule, the TGI in the assay with SF-539 CNS was 37.5 µM; with SNB-75 CNS, greater than 100 µM; with UACC-257 melanoma, greater than 100 µM; with SW-620 colon it was greater than 100 µM.
On to `Cn1c(=O)nc2n(-c3ccc(Cl)cc3)c3cc(Cl)ccc3nc-2c1=O`, for which the TGI with M14 melanoma is 4.21 µM; with UO-31 renal, 24.2 µM; in the assay on HCT-116 colon it was 10 µM; in the assay on MALME-3M melanoma, 3.44 µM; in the assay with SR leukemia, 29.8 µM; in the assay with MDA-MB-435, 3.14 µM. Further, the TGI with SF-539 CNS came to 30.4 µM; in the assay on SNB-75 CNS, 14.8 µM; with UACC-257 melanoma it was 3.51 µM; in the assay with SW-620 colon, 4.22 µM.
In the case of `Cc1ccc2cccc(OC(=O)Nc3cccc(C(F)(F)F)c3)c2n1`, the GI50 with M14 melanoma is 4.06 µM; with UO-31 renal, 2.4 µM; in the assay on HCT-116 colon, 3.27 µM; with MALME-3M melanoma, 3.03 µM; in the assay on SR leukemia, 5.6 µM; in the assay with MDA-MB-435 it was 2.91 µM. Besides, the GI50 in the assay on SF-539 CNS is 5.42 µM; in the assay with SNB-75 CNS it was 2.39 µM; in the assay on UACC-257 melanoma it was 3.4 µM; in the assay with SW-620 colon, 3.46 µM. Moreover, the TGI in the assay on M14 melanoma was 16.2 µM; in the assay with UO-31 renal, 8.99 µM; in the assay on HCT-116 colon, 11.1 µM; in the assay on MALME-3M melanoma it was 10 µM; with SR leukemia, greater than 100 µM; in the assay with MDA-MB-435, 10.9 µM. Further, the concentration for total growth inhibition (TGI) amounted to 18.1 µM with SF-539 CNS, 11.7 µM in the assay with SNB-75 CNS, 12.9 µM in the assay with UACC-257 melanoma and 13.3 µM with SW-620 colon.
For the molecule `COc1c(/C=C/C=O)cc2c(c1OC)OCO2`, the TGI in the assay with M14 melanoma is 56.2 µM; in the assay with UO-31 renal, greater than 100 µM; in the assay on HCT-116 colon, greater than 100 µM; in the assay with MALME-3M melanoma it was 64 µM; with SR leukemia, 64.8 µM; in the assay with MDA-MB-435, greater than 100 µM. Moreover, the TGI in the assay on SF-539 CNS, in the assay with SNB-75 CNS, in the assay with UACC-257 melanoma and in the assay with SW-620 colon was greater than 100 µM throughout.
Regarding `COc1cc(/C=C2\CCC/C(=C\c3ccc(O)c(OC)c3)C2=O)ccc1O`, the GI50 was 1.92 µM in the assay on M14 melanoma; 1.17 µM with UO-31 renal; 1.45 µM in the assay on HCT-116 colon; 0.276 µM in the assay on MALME-3M melanoma; 1.08 µM in the assay with SR leukemia; 1.42 µM in the assay on MDA-MB-435. Also, the GI50 was 3.64 µM and 1.99 µM in the assay with SNB-75 CNS; 1.71 µM in the assay with UACC-257 melanoma; 1.84 µM with SW-620 colon. In addition, the TGI is 6.79 µM and 5.61 µM with M14 melanoma; 4.82 µM and 2.83 µM in the assay with UO-31 renal; 5 µM and 2.75 µM with HCT-116 colon; 5.85 µM and 3.47 µM with MALME-3M melanoma; 4.42 µM and 5.73 µM with SF-539 CNS; 12.7 µM and 13.7 µM with SNB-75 CNS. For the same molecule, the TGI in the assay on UACC-257 melanoma was 27 µM and 6.74 µM; in the assay with SW-620 colon, 9.59 µM and 3.51 µM.
